Test results: patent US10493126B2, “Combination therapy for ameliorating adverse side effects caused by chemotherapy” (YEASTERN BIOTECH CO., LTD, priority 2014, dated 2019)
Values joined by “and” are separate entries in the source; they are usually repeats but may differ in a detail not shown here. Equal entries are not always repeated.

How the values were obtained:
BALB/cByJNarl mice [1] = assay: Structural integrity of jejunal villus, H&E histology, Docetaxel mice model; format: in vivo; details: mice jejunum, FIG. 2A/2B
Description: (§1) Male BALB/cByJNarl mice (6-8 weeks old) were purchased from National Laboratory Animal Center (NLAC) in Taiwan and randomly divided into four groups, with five mice in Groups Docetaxel+PBS, Docetaxel+FIP-fve and Docetaxel+FIP-gts each and four in Control group. The mice were housed under pathogen-free conditions with a 12-hour light/12-hour dark schedule, and fed an autoclaved diet with ad libitum access to standard rodent chow (Laboratory Rodent Diet 5001, LabDiet, St. Louis, Mo., USA). Three days before the administration of Docetaxel (namely, Day-3), the mice in the Docetaxel+PBS Group started to be fed phosphate-buffered saline (PBS) at 100 μL/animal/day, and the daily feeding of PBS continued throughout the experiment. The mice were injected intravenously in the tail vein with Taxotere® (Aventis Pharma Ltd., Dagenham, UK) at a dose of 30 mg/kg body weight on Days 1, 8 and 15. The Docetaxel+FIP-fve and Docetaxel+FIP-gts Groups were administered Taxotere® at the same dose on the same days as described above. […]
Intestinal samples from the jejunum of the sacrificed mice were fixed in 10% formalin and embedded in paraffin wax. […] The histological images of villi appeared in the intestinal samples are shown in FIG. 2A, and the lengths of villi measured by an NIS-Elements D 3.2 image analysis system (Nikon, Japan) were shown in FIG. 2B.

BALB/cByJNarl mice [2] = assay: Complete blood count in Docetaxel mice model; format: in vivo
Description: (§2) Male BALB/cByJNarl mice (6-8 weeks old) were purchased from National Laboratory Animal Center (NLAC) in Taiwan and randomly divided into four groups, with five mice in Groups Docetaxel+PBS, Docetaxel+FIP-fve and Docetaxel+FIP-gts each and four in Control group. The mice were housed under pathogen-free conditions with a 12-hour light/12-hour dark schedule, and fed an autoclaved diet with ad libitum access to standard rodent chow (Laboratory Rodent Diet 5001, LabDiet, St. Louis, Mo., USA). Three days before the administration of Docetaxel (namely, Day-3), the mice in the Docetaxel+PBS Group started to be fed phosphate-buffered saline (PBS) at 100 μL/animal/day, and the daily feeding of PBS continued throughout the experiment. The mice were injected intravenously in the tail vein with Taxotere® (Aventis Pharma Ltd., Dagenham, UK) at a dose of 30 mg/kg body weight on Days 1, 8 and 15. The Docetaxel+FIP-fve and Docetaxel+FIP-gts Groups were administered Taxotere® at the same dose on the same days as described above. Additionally, the two treatment groups daily received 100 μL PBS added with either 200 μg FIP-fve or 400 μg FIP-gts throughout the experiment starting from Day-3 until the end of the experiment (Day 18). The FIP-gts protein used in this and other Examples disclosed herein was produced according to the method disclosed in WO2005040375A1. The FIP-fve protein used herein was purified from F. velutipes by the method disclosed in Ko J. L., Eur. J. Biochem. 1995; 228:244-249. The mice of the Control Group were given with PBS alone at 100 μL/animal/day without being injected with anti-cancer agent. Blood was sampled from the orbital sinus of the mice on days 4, 11 and 18 for subsequent analysis. The animals were sacrificed by CO2 asphyxiation on day 18. The protocol of the experiment is illustrated in FIG. 1.

BALB/cByJNarl mice [3] = assay: Bone marrow adipogenesis in tibia, H&E histology, Docetaxel mice model; format: in vivo; details: FIG. 4A/4B, compared to the Control
Description: as §1, with “15.” for “15. The Docetaxel+FIP-fve and Docetaxel+FIP-gts Groups were administered Taxotere® at the same dose on the same days as described above.”
Tibiae were separated from right hind limbs of the mice and defleshed. […] The tibia samples were sent to the Taiwan Mouse Clinic, funded by the National Research Program for Biopharmaceuticals (NRPB) of the National Science Council (NSC) in Taiwan, where the samples were scanned by applying three-dimensional micro-computed tomography (micro CT) in a high-resolution low-dose X-ray scanner (SkyScan 1076, Aartselaar, Belgium) and assessed for trabecular bone micro-architecture. […]

BALB/cByJNarl mice [4] = assay: Micro CT of tibia, trabecular bone micro-architecture, Docetaxel mice model; format: in vivo; details: for porosity of knee, distal femur and proximal tibia samples, in words: FIG. 3B/3C, versus the mice group injected with Docetaxel alone
Description: as §2
Tibiae were separated from right hind limbs of the mice and defleshed. Afterwards, individual tibiae were placed into 15 mL Falcons conical centrifuge tubes (Becton, Dickinson and Company, Franklin Lakes, N.J., USA) and covered with 70% ethanol. The tibia samples were sent to the Taiwan Mouse Clinic, funded by the National Research Program for Biopharmaceuticals (NRPB) of the National Science Council (NSC) in Taiwan, where the samples were scanned by applying three-dimensional micro-computed tomography (micro CT) in a high-resolution low-dose X-ray scanner (SkyScan 1076, Aartselaar, Belgium) and assessed for trabecular bone micro-architecture. For histological analysis, some tibia samples were demineralized in 10% EDTA for two weeks, dehydrated in graded ethanol solutions and embedded in paraffin wax using a Leica ASP300S tissue processor (Leica Microsystems Nussloch GmbH). Deparaffinized sections were stained with hematoxylin and eosin (H&E staining) and then observed under microscope.

human lymphocytes = details: 3H-thymidine, compared to PHA; cited from earlier work
[5] = tested on: human patients with stage III or IV lung cancer; assay: Clinical study: FIP-gts tablets with Taxotere and cisplatin/carboplatin; format: in vivo; parameters: key to ECOG: 0: Asymptomatic (Fully active, able to carry on all pre-disease activities without restriction); 1: Symptomatic but completely ambulatory (Restricted in physically strenuous activity but ambulatory and able to carry out work of a light or sedentary nature. For example, light housework, office work); 2: Symptomatic, <50% in bed during the day (Ambulatory and capable of all self care but unable to carry out any work activities. Up and about more than 50% of waking hours); 3: Symptomatic, >50% in bed, but not bedbound (Capable of only limited self-care, confined to bed or chair 50% or more of waking hours); 4: Bedbound (Completely disabled. Cannot carry on any self-care. Totally confined to bed or chair); 5: Death; details: columns = course days; for Hb: in g/dL (unit assumed); for Cr.: in mg/dL (unit assumed)
Description: The inventors further conducted a clinical study on diminished quality of life (QOL) and cancer-related fatigue (CRF) caused by chemotherapy. The QOL and CRF of selected human patients were evaluated by the Eastern Cooperative Oncology Group (ECOG) Performance Status Scale from 0 to 5 (Oken M. M., et al., Am. J. Clin. Oncol.; 1982, 5(6): 649-55), where each grade represents:
Five human patients with stage III or IV lung cancer were enrolled in this study. During the study, each patient was administered Taxotere® at either a low dose of 20-30 mg/m^2 or a high dose of 60-69 mg/m^2 in conjunction with cisplatin/carboplatin on the designated days as prescribed by the physician, and received daily two tablets of FIP-gts (3 mg/tablet). The patients were asked to come back to the hospital on the designated days for follow up at the clinic and collection of blood samples. The patients were assessed for quality of life and fatigue according to the ECOG performance status system described above. The medical records of the five patients, as well as the administration regimens for the patients, were illustrated in Tables III.A-III.E below.

[6] = Docetaxel 30 mg/kg i.v. Days 1, 8, 15, daily FIP-fve 200 μg or FIP-gts 400 μg in 100 μL PBS from Day -3, Day 18
[7] = mice tibia, micro CT, Day 18, Docetaxel 30 mg/kg i.v., FIP-fve 200 μg or FIP-gts 400 μg daily
[8] = Patient Case 3, Taxotere + cisplatin + daily FIP-gts, chemotherapy course 1, April
[9] = Patient Case 3, Taxotere + cisplatin + daily FIP-gts, chemotherapy course 2, May 10
[10] = Patient Case 3, Taxotere + cisplatin + daily FIP-gts, chemotherapy course 3, May
[11] = Patient Case 4, low dose Taxotere + cisplatin/carboplatin + daily FIP-gts
[12] = Patient Case 4, low dose Taxotere + cisplatin/carboplatin + daily FIP-gts, in U/L (unit assumed)

In the case of `CC(=O)O[C@@]12CO[C@@H]1C[C@H](O)[C@@]1(C)C(=O)[C@H](O)C3=C(C)[C@@H](OC(=O)[C@H](O)[C@@H](NC(=O)OC(C)(C)C)c4ccccc4)C[C@@](O)([C@@H](OC(=O)c4ccccc4)[C@H]21)C3(C)C` [Docetaxel, (2R,3S)-N-carboxy-3-phenylisoserine, N-tert-butyl ester, 13-ester with 5, 20-epoxy-1,2,4,7, 10, 13-hexahydroxytax-11-en-9-one 4-acetate 2-benzoate, trihydrate], the “structural integrity of villi, in words” value (BALB/cByJNarl mice [1]) is reported as “severely damaged and blunted”, the HCT (BALB/cByJNarl mice [2]; [6]) is reported as 39.94 ± 1.19% and the HGB (BALB/cByJNarl mice [2]; [6]) is reported as 11.77 ± 0.31 g/dL. The MCH (BALB/cByJNarl mice [2]; [6]) was 15.00 ± 0.16 pg, the MCHC (BALB/cByJNarl mice [2]; [6]) was 29.48 ± 0.05 g/dL and the MCV (BALB/cByJNarl mice [2]; [6]) was 50.82 ± 0.49 fL. For the same molecule, the MPV (BALB/cByJNarl mice [2]; [6]) was 6.71 ± 0.17 fL, the PLT (BALB/cByJNarl mice [2]; [6]) was 317.88 ± 60.27 10^3/μL and the RBC (BALB/cByJNarl mice [2]; [6]) was 7.86 ± 0.24 ×10^6/μL. For the same molecule, the RDW (BALB/cByJNarl mice [2]; [6]) was 29.26 ± 0.73 fL, the WBC (BALB/cByJNarl mice [2]; [6]) was 3.29 ± 0.80 ×10^3/μL and the “levels of white blood cells (WBC), red blood cells (RBC), hemoglobin (HGB), hematocrit (HCT) and platelets (PLT), in words” value (BALB/cByJNarl mice [2]; Docetaxel alone compared with the Control group) was “considerable reduction”. For the same molecule, the “adipogenesis in tibia bone marrow, in words” value (BALB/cByJNarl mice [3]) was “increase in marrow adipose tissue”, the “Bone surface density BS/TV” value (BALB/cByJNarl mice [4]; [7]) was 3.852 1/U and the “Percent bone volume BV/TV” value (BALB/cByJNarl mice [4]; [7]) was 5.634%. For the same molecule, the “Structure model index SMI” value (BALB/cByJNarl mice [4]; [7]) was 2.1757, the “Trabecular number Tb.N” value (BALB/cByJNarl mice [4]; [7]) was 0.8566 1/U and the “Trabecular separation Tb.Sp” value (BALB/cByJNarl mice [4]; [7]) was 0.5623 U. For the same molecule, the “Trabecular thickness Tb.Th” value (BALB/cByJNarl mice [4]; [7]) was 0.06577 U, the “structural integrity of the tibia, in words” value (BALB/cByJNarl mice [4]; micro CT, FIG. 3A, compared to the Control Group) was “much more osteo-porous than the Control” and the “Docetaxel-induced osteoporosis, in words” value (BALB/cByJNarl mice [4]; tibia samples, from trabecular number, percent bone volume, trabecular separation) was “induction of osteoporosis”.

For “FIP-gts: fungal immunomodulatory protein of Ganoderma tsugae, SEQ ID NO: 1, produced according to WO2005040375A1; 3 mg tablets in the clinical study”, the “concentration sufficient to reach the maximum proliferation of human lymphocytes” value (human lymphocytes) is given as 5 µg/mL, the “WBC level, in words” value (BALB/cByJNarl mice [2]; co-treatment with Docetaxel) is given as “remarkably restored the WBC level to its control value” and the “porosity of knee, distal femur and proximal tibia samples, in words” value (BALB/cByJNarl mice [4]; micro CT) is given as “considerably less porous”. The ECOG ([5]; Patient Case 1, Taxotere + cisplatin/carboplatin + daily FIP-gts) was 1, the ECOG ([5]; Patient Case 2, Taxotere + cisplatin/carboplatin + daily FIP-gts) was 1 and the ECOG ([5]; Patient Case 3, Taxotere + cisplatin + daily FIP-gts) was 0. For the same molecule, the AST ([5]; Patient Case 3, Taxotere + cisplatin + daily FIP-gts, in U/L (unit assumed), chemotherapy course 1, April) was 14, the AST ([5]; Patient Case 3, Taxotere + cisplatin + daily FIP-gts, in U/L (unit assumed), chemotherapy course 2, May 10) was 13 and the AST ([5]; Patient Case 3, Taxotere + cisplatin + daily FIP-gts, in U/L (unit assumed), chemotherapy course 3, May) was 15. The Hb [5, 8] was 14.9, the Hb [5, 9] was 13.9 and the Hb [5, 10] was 12. The Cr. [5, 8] was 1.09, the Cr. [5, 9] was 0.94 and the Cr. [5, 10] was 0.86. The ECOG [5, 11] was 1, the ALT [5, 12] was 10 and 9 and the AST [5, 12] was 18 and 13 and 15. The Hb [5, 11] was 11.2 and 10 and 8.6 and 9.5 and 9.6 and 8.9, the Cr. [5, 11] was 0.8 and 0.89 and 1.15 and the ECOG ([5]; Patient Case 5, low dose Taxotere + cisplatin + daily FIP-gts) was 0.

B1: FIP-fve: fungal immunomodulatory protein purified from F. velutipes, SEQ ID NO: 2 (protein)
chain: SATSLTFQLAYLVKKIDFDYTPNWGRGTPSSYIDNLTFPKVLTDKKYSYRVVVNGSDLGVESNFAVTPSGGQTINFLQYNKGYGVADTKTIQVFVVIPDTGNSEEYIIAEWKKT
modifications: Flammulina Velutipes
In the case of B1, the “concentration sufficient to reach the maximum proliferation of human lymphocytes” value (human lymphocytes) is given as 100 µg/mL, the “HGB and PLT levels, in words” value (BALB/cByJNarl mice [2]; reduction caused by Docetaxel) is given as “lessened the reduction” and the “porosity of knee, distal femur and proximal tibia samples, in words” value (BALB/cByJNarl mice [4]; micro CT) is given as “considerably less porous”.
